The source of these data is PMC10674166, “Sustainable Immobilization of β-Glucosidase onto Silver Ions and AgNPs-Loaded Acrylic Fabric with Enhanced Stability and Reusability” (Polymers, 2023).

In the assay the test system is T1, β-glucosidase from almonds (β-Glu).
T1 construct: gene AH; free enzyme
Kind of assay: p-nitrophenol release at […] nm, Lineweaver-Burk. The conditions noted are these: free enzyme; standard assay 0.1 M sodium acetate pH 6.0, 37 °C (pH and temperature of the kinetic runs not restated); apparent constant. Format: biochemical.

Each structure is given as a SMILES string.

For `O=[N+]([O-])c1ccc(O[C@@H]2O[C@H](CO)[C@@H](O)[C@H](O)[C@H]2O)cc1` [p-nitrophenyl-β-D-glucopyranoside], the Km (usually the concentration of substrate that gives half-maximal velocity) stood at 2600 µM.
